According to ChEMBL document CHEMBL2203210, “SAR and in vivo evaluation of 4-aryl-2-aminoalkylpyrimidines as potent and selective Janus kinase 2 (JAK2) inhibitors” (Bioorg Med Chem Lett, 2012):

Key:
[1] = Half life in Beagle dog at 3 mg/kg, po; type: ADME, organism-based, Canis lupus familiaris; design: dose 3 mg/kg, route oral; details: in vivo
[2] = Half life in CD rat at 5 mg/kg, iv; type: ADME, organism-based; design: dose 5 mg/kg, route intravenous; details: in vivo
[3] = Plasma concentration in nude mouse xenografted with HEL 92.1.7 cells at 30 mg/kg, po after 4 hrs; type: ADME, organism-based; design: dose 30 mg/kg, route oral
[4] = system: Mus musculus; experiment: Inhibition of JAK2 in HEL 92.1.7 cells xenografted in nude mouse assessed as inhibition of STAT1 phosphorylation at 100 mg/kg, po after 4 hrs relative to vehicle-treated control; type: functional
[5] = molecular target: Cytochrome P450 3A4 (Homo sapiens, UniProt P08684); experiment: Inhibition of CYP3A4; type: ADME
Sequence of Cytochrome P450 3A4 (P08684 whole entry): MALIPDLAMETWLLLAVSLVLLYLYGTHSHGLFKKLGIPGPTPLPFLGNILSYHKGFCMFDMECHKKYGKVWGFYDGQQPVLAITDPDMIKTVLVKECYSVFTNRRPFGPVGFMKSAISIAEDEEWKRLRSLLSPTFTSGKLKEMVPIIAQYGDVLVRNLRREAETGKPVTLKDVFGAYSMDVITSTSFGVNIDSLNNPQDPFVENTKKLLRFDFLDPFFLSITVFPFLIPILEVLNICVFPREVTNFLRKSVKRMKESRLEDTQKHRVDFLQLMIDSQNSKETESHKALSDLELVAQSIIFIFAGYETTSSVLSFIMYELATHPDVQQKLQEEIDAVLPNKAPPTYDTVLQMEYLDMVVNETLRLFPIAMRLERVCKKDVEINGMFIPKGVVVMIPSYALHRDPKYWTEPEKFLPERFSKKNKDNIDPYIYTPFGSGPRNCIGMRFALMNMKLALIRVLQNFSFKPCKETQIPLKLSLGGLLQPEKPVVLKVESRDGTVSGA

[6] = Oral bioavailability in athymic nude mouse at 10 mg/kg; type: ADME, organism-based; details: in vivo
[7] = molecular target: Non-receptor tyrosine-protein kinase TYK2 (Homo sapiens, UniProt P29597); experiment: Inhibition of TYK2
[8] = Inhibition of p-gp
[9] = system: Rattus norvegicus; experiment: Dose normalized AUC in CD rat at 5 mg/kg, iv; type: ADME, organism-based; design: dose 5 mg/kg, route intravenous; details: in vivo
[10] = molecular target: T1, Tyrosine-protein kinase JAK3 (Homo sapiens, UniProt P52333)
T1 sequence (P52333 whole entry): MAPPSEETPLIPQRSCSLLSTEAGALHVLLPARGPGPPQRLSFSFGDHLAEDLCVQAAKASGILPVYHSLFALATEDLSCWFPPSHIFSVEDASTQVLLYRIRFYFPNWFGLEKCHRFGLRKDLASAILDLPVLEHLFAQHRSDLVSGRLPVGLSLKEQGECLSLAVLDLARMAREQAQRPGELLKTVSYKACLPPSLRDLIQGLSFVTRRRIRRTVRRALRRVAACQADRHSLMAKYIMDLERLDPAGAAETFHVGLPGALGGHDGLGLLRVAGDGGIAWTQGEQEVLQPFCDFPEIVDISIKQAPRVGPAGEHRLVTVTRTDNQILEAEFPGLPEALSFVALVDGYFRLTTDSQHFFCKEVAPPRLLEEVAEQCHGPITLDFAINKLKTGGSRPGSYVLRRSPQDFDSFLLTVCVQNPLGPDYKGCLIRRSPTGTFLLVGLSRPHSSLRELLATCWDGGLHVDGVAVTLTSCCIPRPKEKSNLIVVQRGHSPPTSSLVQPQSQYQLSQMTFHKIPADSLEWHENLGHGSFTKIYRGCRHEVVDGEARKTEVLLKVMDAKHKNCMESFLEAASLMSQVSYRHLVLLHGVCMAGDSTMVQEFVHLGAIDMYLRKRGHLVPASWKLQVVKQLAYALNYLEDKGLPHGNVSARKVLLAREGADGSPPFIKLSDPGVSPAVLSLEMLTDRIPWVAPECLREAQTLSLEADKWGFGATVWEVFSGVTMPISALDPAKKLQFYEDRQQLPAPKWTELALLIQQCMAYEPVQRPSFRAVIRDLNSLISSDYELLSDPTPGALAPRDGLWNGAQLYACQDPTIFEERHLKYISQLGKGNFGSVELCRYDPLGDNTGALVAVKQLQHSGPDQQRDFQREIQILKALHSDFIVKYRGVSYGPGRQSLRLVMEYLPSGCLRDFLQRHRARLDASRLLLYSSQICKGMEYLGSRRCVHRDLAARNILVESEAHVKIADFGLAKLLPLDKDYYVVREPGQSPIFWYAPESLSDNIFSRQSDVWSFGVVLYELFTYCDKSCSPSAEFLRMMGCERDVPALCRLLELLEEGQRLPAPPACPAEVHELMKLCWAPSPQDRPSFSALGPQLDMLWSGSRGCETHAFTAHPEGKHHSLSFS

[11] = Metabolic stability in mouse liver microsomes assessed as compound remaining after 30 mins; type: ADME, Microsome; details: read-out: Stability
[12] = Plasma concentration in nude mouse xenografted with HEL 92.1.7 cells at 300 mg/kg, po after 4 hrs; type: ADME, organism-based; design: dose 300 mg/kg, route oral
[13] = molecular target: Cytochrome P450 2D6 (Homo sapiens, UniProt P10635); experiment: Inhibition of CYP2D6; type: ADME
Sequence of Cytochrome P450 2D6 (P10635 whole entry): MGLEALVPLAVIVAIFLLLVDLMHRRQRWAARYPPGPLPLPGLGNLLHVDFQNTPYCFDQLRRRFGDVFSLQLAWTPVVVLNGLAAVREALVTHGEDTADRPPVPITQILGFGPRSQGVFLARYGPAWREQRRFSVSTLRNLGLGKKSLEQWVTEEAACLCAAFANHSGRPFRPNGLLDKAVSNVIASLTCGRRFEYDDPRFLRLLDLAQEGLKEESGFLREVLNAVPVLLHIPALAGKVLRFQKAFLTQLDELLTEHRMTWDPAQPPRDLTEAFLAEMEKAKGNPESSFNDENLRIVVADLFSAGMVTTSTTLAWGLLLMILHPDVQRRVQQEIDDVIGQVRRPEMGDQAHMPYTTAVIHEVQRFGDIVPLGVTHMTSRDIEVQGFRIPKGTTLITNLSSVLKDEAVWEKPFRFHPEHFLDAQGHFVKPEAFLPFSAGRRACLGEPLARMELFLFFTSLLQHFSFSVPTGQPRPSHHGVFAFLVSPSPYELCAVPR

[14] = molecular target: Mitogen-activated protein kinase kinase kinase 9 (Homo sapiens, UniProt P80192); experiment: Inhibition of MLK1
Sequence of Mitogen-activated protein kinase kinase kinase 9 (P80192 whole entry): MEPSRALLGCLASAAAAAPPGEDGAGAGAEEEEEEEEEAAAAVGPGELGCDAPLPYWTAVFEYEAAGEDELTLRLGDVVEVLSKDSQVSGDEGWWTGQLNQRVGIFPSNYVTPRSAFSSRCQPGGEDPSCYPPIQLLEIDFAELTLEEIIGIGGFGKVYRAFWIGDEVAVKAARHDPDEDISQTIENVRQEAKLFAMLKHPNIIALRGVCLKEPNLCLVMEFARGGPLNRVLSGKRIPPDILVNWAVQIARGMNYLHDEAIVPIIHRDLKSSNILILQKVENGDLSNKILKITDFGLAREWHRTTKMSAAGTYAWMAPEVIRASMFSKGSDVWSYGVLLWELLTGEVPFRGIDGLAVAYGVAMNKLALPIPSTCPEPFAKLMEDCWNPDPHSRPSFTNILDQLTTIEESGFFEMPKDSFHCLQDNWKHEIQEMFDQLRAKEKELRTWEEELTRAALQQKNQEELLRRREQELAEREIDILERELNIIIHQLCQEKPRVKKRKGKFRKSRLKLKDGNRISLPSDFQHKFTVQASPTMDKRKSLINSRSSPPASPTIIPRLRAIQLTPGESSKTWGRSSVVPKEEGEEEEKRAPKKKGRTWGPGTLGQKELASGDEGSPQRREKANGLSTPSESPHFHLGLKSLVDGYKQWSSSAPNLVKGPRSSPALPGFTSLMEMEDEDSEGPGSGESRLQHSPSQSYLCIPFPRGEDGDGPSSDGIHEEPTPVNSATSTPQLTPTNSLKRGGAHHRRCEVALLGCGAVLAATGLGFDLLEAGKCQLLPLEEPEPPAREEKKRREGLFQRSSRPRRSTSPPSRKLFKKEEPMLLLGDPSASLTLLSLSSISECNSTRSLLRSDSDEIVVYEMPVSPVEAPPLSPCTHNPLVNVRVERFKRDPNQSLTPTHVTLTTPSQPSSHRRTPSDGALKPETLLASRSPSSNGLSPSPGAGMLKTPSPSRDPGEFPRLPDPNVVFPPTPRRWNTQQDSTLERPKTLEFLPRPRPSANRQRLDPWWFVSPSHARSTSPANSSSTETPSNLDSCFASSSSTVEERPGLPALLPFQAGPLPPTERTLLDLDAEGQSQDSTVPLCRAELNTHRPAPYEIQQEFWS

[15] = molecular target: Receptor-type tyrosine-protein kinase FLT3 (Homo sapiens, UniProt P36888); experiment: Inhibition of FLT3
Sequence of Receptor-type tyrosine-protein kinase FLT3 (P36888 whole entry): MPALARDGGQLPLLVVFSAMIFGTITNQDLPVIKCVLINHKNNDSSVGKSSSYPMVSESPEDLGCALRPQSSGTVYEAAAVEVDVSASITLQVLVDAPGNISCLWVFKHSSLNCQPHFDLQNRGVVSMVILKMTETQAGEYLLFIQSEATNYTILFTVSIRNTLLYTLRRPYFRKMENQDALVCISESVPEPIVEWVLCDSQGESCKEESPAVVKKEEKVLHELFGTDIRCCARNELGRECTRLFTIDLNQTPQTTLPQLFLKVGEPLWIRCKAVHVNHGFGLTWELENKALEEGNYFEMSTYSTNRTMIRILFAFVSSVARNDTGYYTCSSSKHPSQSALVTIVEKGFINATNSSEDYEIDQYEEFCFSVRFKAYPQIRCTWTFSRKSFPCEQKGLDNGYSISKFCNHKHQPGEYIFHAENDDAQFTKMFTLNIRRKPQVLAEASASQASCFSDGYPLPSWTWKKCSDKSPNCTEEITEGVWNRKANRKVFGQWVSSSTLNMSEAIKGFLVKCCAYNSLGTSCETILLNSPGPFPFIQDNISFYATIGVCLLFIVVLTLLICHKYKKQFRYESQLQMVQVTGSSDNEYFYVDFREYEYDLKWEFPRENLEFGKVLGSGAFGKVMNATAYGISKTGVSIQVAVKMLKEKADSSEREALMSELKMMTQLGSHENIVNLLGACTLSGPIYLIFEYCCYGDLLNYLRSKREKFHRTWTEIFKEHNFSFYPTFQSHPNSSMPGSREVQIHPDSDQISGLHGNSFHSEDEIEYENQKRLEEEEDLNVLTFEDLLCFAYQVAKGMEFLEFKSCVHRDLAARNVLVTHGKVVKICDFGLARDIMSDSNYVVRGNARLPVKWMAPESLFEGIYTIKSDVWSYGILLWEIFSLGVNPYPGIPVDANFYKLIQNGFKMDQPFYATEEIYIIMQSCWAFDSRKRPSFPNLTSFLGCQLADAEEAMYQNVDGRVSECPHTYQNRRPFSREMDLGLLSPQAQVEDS

[16] = system: Canis familiaris; experiment: Dose normalized AUC in Beagle dog at 3 mg/kg, iv; type: ADME, organism-based, Canis lupus familiaris; design: dose 3 mg/kg, route intravenous; details: in vivo
[17] = Oral bioavailability in Beagle dog at 3 mg/kg; type: ADME, organism-based, Canis lupus familiaris; details: in vivo
[18] = system: Mus musculus; experiment: Inhibition of JAK2 in HEL 92.1.7 cells xenografted in nude mouse assessed as inhibition of STAT3 phosphorylation at 300 mg/kg, po after 4 hrs relative to vehicle-treated control; type: functional
[19] = system: Mus musculus; experiment: Inhibition of JAK2 in HEL 92.1.7 cells xenografted in nude mouse assessed as inhibition of STAT3 phosphorylation at 100 mg/kg, po after 4 hrs relative to vehicle-treated control; type: functional
[20] = molecular target: Platelet-derived growth factor receptor beta (Homo sapiens, UniProt P09619); experiment: Inhibition of PDGFRB
[21] = system: Rattus norvegicus; experiment: Volume of distribution in CD rat at 5 mg/kg, po and iv; type: ADME, organism-based; design: dose 5 mg/kg, route oral; details: in vivo
[22] = Half life in cynomolgus monkey at 3 mg/kg, iv; type: ADME, organism-based, Macaca fascicularis; design: dose 3 mg/kg, route intravenous; details: in vivo
[23] = system: HEL; experiment: Induction of apoptosis in HEL 92.1.7 cells xenografted in nude mouse at 300 mg/kg, po bid relative to vehicle-treated control; type: functional, Homo sapiens
[24] = system: Mus musculus; experiment: Volume of distribution in athymic nude mouse at 10 mg/kg, po and iv; type: ADME, organism-based; design: dose 10 mg/kg, route oral; details: in vivo
[25] = molecular target: Cytochrome P450 1A2 (Homo sapiens, UniProt P05177); experiment: Inhibition of CYP1A2; type: ADME
Sequence of Cytochrome P450 1A2 (P05177 whole entry): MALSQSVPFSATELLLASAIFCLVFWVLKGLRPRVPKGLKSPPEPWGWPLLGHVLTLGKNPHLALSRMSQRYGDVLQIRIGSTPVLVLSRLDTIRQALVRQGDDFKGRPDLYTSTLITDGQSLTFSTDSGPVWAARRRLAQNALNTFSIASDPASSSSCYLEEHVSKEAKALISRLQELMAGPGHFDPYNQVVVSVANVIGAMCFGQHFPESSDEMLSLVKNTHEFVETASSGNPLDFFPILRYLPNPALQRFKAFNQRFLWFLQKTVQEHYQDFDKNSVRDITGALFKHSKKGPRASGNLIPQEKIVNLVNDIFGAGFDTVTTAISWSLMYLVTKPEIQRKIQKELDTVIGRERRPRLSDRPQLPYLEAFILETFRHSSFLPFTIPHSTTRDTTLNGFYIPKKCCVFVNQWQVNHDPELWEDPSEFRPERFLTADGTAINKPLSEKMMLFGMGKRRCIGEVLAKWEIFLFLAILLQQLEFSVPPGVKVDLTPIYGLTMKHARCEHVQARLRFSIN

[26] = system: Mus musculus; experiment: Inhibition of JAK2 in HEL 92.1.7 cells xenografted in po dosed nude mouse assessed as inhibition of STAT1 phosphorylation after 4 hrs; type: functional, organism-based
[27] = Cmax in cynomolgus monkey at 3 mg/kg, iv; type: ADME, organism-based, Macaca fascicularis; design: dose 3 mg/kg, route intravenous; details: in vivo
[28] = system: Mus musculus; experiment: Inhibition of JAK2 in HEL 92.1.7 cells xenografted in po dosed nude mouse assessed as inhibition of STAT3 phosphorylation after 4 hrs; type: functional, organism-based
[29] = system: Mus musculus; experiment: Inhibition of JAK2 in HEL 92.1.7 cells xenografted in nude mouse assessed as inhibition of STAT1 phosphorylation at 30 mg/kg, po after 4 hrs relative to vehicle-treated control; type: functional
[30] = Oral bioavailability in CD rat at 5 mg/kg; type: ADME, organism-based; details: in vivo
[31] = Half life in cynomolgus monkey at 3 mg/kg, po; type: ADME, organism-based, Macaca fascicularis; design: dose 3 mg/kg, route oral; details: in vivo
[32] = molecular target: Platelet-derived growth factor receptor alpha (Homo sapiens, UniProt P16234); experiment: Inhibition of PDGFRA
Sequence of Platelet-derived growth factor receptor alpha (P16234 whole entry): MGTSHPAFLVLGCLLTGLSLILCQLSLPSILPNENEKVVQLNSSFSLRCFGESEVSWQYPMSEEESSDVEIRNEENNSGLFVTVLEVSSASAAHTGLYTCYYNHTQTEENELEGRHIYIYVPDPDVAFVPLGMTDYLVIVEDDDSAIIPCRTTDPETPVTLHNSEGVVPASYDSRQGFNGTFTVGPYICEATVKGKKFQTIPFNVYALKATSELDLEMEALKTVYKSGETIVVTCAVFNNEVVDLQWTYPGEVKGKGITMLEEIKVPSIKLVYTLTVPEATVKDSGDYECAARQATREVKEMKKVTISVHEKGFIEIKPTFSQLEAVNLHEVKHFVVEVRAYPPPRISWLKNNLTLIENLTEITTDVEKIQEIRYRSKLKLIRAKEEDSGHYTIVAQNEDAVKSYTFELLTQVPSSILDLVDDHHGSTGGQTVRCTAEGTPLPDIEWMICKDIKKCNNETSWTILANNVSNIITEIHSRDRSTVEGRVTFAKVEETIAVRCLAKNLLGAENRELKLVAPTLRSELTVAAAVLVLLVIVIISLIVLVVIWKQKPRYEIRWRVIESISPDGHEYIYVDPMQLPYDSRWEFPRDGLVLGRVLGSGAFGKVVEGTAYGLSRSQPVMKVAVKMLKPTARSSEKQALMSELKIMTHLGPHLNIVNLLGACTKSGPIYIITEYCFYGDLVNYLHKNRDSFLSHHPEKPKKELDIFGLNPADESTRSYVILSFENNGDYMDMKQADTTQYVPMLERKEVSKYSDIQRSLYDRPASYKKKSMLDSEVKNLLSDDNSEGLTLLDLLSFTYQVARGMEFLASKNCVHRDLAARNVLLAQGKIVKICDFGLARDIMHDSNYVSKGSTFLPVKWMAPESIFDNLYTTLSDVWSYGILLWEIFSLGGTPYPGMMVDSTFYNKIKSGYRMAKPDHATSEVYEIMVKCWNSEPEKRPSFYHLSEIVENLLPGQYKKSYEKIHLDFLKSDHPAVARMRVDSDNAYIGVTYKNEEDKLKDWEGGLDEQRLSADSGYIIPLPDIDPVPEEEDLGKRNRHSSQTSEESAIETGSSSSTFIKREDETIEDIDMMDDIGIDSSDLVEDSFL

[33] = molecular target: Vascular endothelial growth factor receptor 3 (Homo sapiens, UniProt P35916); experiment: Inhibition of FLT4
[34] = system: Cynomolgus monkey; experiment: Volume of distribution in cynomolgus monkey at 3 mg/kg, po and iv; type: ADME, organism-based, Macaca fascicularis; design: dose 3 mg/kg, route oral; details: in vivo
[35] = Cmax in athymic nude mouse at 10 mg/kg, po; type: ADME, organism-based; design: dose 10 mg/kg, route oral; details: in vivo
[36] = Cmax in CD rat at 5 mg/kg, iv; type: ADME, organism-based; design: dose 5 mg/kg, route intravenous; details: in vivo

`O=C(Nc1ccc(-c2ccnc(Nc3ccc(N4CCOCC4)cc3)n2)cc1)[C@H]1CCCN1` gave a half-life [1] of 5.06 h, a half-life [2] of 3.12 h and a concentration at 4 h [3] of 830 nM. The inhibition in vivo at 100 mg/kg [4] was 72%, the INH [5] was “>= 20 uM” and the bioavailability [6] was 54.5%. For the same compound, the IC50 [7] was 348 nM, the INH [8] was over 20 µM and the AUC/dose [9] was 15.99 µM·kg·h/mg. For the same compound, the IC50 [10] was 214 nM, the remaining at 0.5 h [11] was 62% and the concentration at 4 h [12] was 20200 nM. The INH [13] was “>= 20 uM”, the IC50 [14] was 370 nM and the IC50 [15] was 140 nM. The AUC/dose [16] was 1.47 µM·kg·h/mg, the bioavailability [17] was 44.8% and the inhibition in vivo at 300 mg/kg [18] was 55%. The inhibition in vivo at 100 mg/kg [19] was 40%, the IC50 [20] was 125 nM and the Vd [21] was 0.666 L/kg. The half-life [22] was 3.28 h, the “fold change (FC)” value [23] was 11.3 and the Vd [24] was 5.319 L/kg. The INH [25] was “>= 20 uM”, the IC50 [26] was 1390 nM and the ED50 ([26]; po) was 42 mg/kg. For the same compound, the Cmax [27] was 640 nM, the IC50 [28] was 13000 nM and the ED50 ([28]; po) was 210 mg/kg. The inhibition in vivo at 30 mg/kg [29] was 41%, the bioavailability [30] was 53.6% and the half-life [31] was 3.36 h. It also gave an IC50 [32] of 547 nM, an IC50 [33] of 555 nM and a Vd [34] of 6.739 L/kg. It also gave a Cmax [35] of 570 nM and a Cmax [36] of 13000 nM.
